Experimental data as given in patent publication US20240109881A1, “Heteroaryl Compounds as Ligand Directed Degraders of IRAK4” (Bristol-Myers Squibb Company, priority 2022, published 2024).

Target: T1, IRAK4 (Homo sapiens, UniProt Q9NWZ3)
T1 construct: endogenous in cells; host or cells: THP-1 cells
T1 sequence (Q9NWZ3 1-460): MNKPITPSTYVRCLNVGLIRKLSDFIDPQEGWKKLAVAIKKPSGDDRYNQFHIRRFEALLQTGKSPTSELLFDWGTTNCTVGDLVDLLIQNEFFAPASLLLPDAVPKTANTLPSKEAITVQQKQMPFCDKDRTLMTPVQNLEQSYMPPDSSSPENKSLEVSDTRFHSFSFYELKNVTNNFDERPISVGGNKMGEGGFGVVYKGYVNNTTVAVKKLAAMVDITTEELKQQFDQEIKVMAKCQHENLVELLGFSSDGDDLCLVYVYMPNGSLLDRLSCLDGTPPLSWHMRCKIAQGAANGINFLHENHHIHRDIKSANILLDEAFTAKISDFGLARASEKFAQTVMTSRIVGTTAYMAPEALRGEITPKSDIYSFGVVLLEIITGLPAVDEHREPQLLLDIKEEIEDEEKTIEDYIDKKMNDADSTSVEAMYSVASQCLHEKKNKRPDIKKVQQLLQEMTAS
Test: LVL THP1 HTRF (THP1 Homogeneous Time Resolved Fluorescence)
Format: cell-based
Conditions: THP1 cells, 18 h incubation with compound; for DC50: read-out: LVL THP1 HTRF EC50
Outline: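 IRAK4 HTRF read-out (665/615 nm ratio, anti-IRAK4 d2 acceptor and K donor, 18 h dark incubation at room temperature) on lysates of THP-1 cells. Cells were treated 18 h at 37° C. with 20 nL compound in DMSO, in colorless RPMI with 10% FBS, with a duplicate CTG plate.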

Structure (SMILES)	LVL THP1 HTRF YMIN	DC50
C[C@H](C#N)Nc1cc(-n2ncc3cc(C#N)cnc32)ncc1-n1cc(C2CCC(CCN3CCN(c4ccc(N5CCC(=O)NC5=O)cc4)[C@@H]4CCC[C@@H]43)CC2)nn1 (single isomer, unassigned) [P-505]	9.83%	197 nM
C[C@H](C#N)Nc1cc(Nc2ncc(C#N)cc2Cl)ncc1-n1cc([C@H]2CC[C@H](CCN3CCN(c4ccc(N5CCC(=O)NC5=O)cc4)[C@@H]4CCC[C@@H]43)CC2)nn1 (single isomer, unassigned) [P-506]	65.39%	1000 nM
C[C@H](C#N)Nc1cc(Nc2ncc(C#N)cc2F)ncc1-n1cc([C@H]2CC[C@H](CCN3CC[C@H]4[C@@H]3CCN4c3ccc(N4CCC(=O)NC4=O)cc3)CC2)nn1 (single isomer, unassigned) [P-507]	−1.72%	62.8 nM
C[C@H](C#N)Nc1cc(-n2ncc3ccc(N4C[C@H]5C[C@@H]4CO5)nc32)ncc1-n1cc([C@H]2CC[C@H](CCN3CCC(c4ccc([C@@]5(F)CCC(=O)NC5=O)cc4)CC3)CC2)nn1 (single isomer, unassigned) [P-513]	5.2%	8 nM
C[C@H](C#N)Nc1cc(-n2ncc3cc(C#N)c(N)nc32)ncc1-n1cc([C@H]2CC[C@H](CCN3CCN(c4ccc([C@@]5(C)CCC(=O)NC5=O)cc4)[C@H](C)C3)CC2)nn1 (stereo in doubt) [P-260]	7.6%	17 nM
C[C@H](C#N)Nc1cc(-n2ncc3cc(C#N)cnc32)ncc1-n1cc([C@H]2CC[C@H](CCN3CCC(c4ccc([C@@]5(C)CCC(=O)NC5=O)cc4)C(F)C3)CC2)nn1 (stereo in doubt) [P-310]	1.3%	3.6 nM
CC[C@H](C#N)Nc1cc(-n2ncc3cc(C#N)cnc32)ncc1-n1cc([C@H]2CC[C@H](CCN3CCN(c4ccc(C5CCC(=O)NC5=O)cc4)CC3)CC2)nn1 (stereo in doubt) [P-392]	3.5%	8.7 nM
N#Cc1cnc2c(cnn2-c2cc(N[C@@H]3CCOC3)c(-n3cc([C@H]4CC[C@H](CCN5CCN(c6ccc(C7CCC(=O)NC7=O)cc6)CC5)CC4)nn3)cn2)c1 (stereo in doubt) [P-405]	3.1%	4.8 nM
O=C1CCC(N2C(=O)c3ccc(NCCCNC(=O)C4CCC(NC(=O)c5cnc(Nc6ccc7ncsc7c6)cc5NC5CCCC5)CC4)cc3C2=O)C(=O)N1 (stereo not drawn) [P-1]	33.3%	148 nM
CC(F)(F)CNc1cc(-n2ncc3cc(C#N)cnc32)ncc1-n1cc(C2CCC(CCN3CCN(c4ccc(C5CCC(=O)NC5=O)cc4)CC3)CC2)nn1 (stereo not drawn) [P-169]	3.0%	
CC(F)(F)CNc1cc(-n2ncc3cc(C#N)cnc32)ncc1-n1cc([C@H]2CC[C@H](CCN3CCN(c4ccc(C5CCC(=O)NC5=O)cc4)CC3)CC2)nn1 (stereo partly drawn) [P-169]		26 nM
Cc1cc(C2CCC(=O)NC2=O)ccc1N1CCN(CC[C@H]2CC[C@H](NC(=O)c3cnc(-n4ncc5cc(C#N)c(N)nc54)cc3N[C@H](C)C#N)CC2)C[C@H]1C (stereo partly drawn) [P-170]	0.9%	14 nM
Cc1cc(N2CCN(CC[C@H]3CC[C@H](NC(=O)c4cnc(-n5ncc6cc(C#N)c(N)nc65)cc4N[C@H](C)C#N)CC3)C[C@H]2C)ccc1C1CCC(=O)NC1=O (stereo partly drawn) [P-171]	1.2%	23 nM
Cc1cc(N2CCN(CC[C@H]3CC[C@H](NC(=O)c4cnc(-n5ncc6cc(C#N)c(N)nc65)cc4N[C@H](C)C#N)CC3)C[C@H]2C)ccc1C1CCC(=O)NC1=O (stereo partly drawn) [P-172]	1.1%	10 nM
C[C@H](C#N)Nc1cc(-n2ncc3cc(C#N)c(N)nc32)ncc1C(=O)N[C@H]1CC[C@H](CCN2CCN(c3ccc(C4CCC(=O)NC4=O)c(F)c3)[C@H](C)C2)CC1 (stereo partly drawn) [P-173]	0.7%	11 nM
C[C@H](C#N)Nc1cc(-n2ncc3cc(C#N)cnc32)ncc1C(=O)N[C@H]1CC[C@H](CCN2CC3CC2CN3c2ccc(C3CCC(=O)NC3=O)cc2)CC1 (stereo partly drawn) [P-179]	2.0%	65 nM
COc1nc2c(cnn2-c2cc(N[C@H](C)C#N)c(C(=O)N[C@H]3CC[C@H](CCN4CCN(c5ccc(C6CCC(=O)NC6=O)cc5)CC4)CC3)cn2)cc1C#N (stereo partly drawn) [P-184]	1.3%	51 nM
CC(F)(F)CNc1cc(-n2ncc3cc(C#N)c(N)nc32)ncc1C(=O)N[C@H]1CC[C@H](CCN2CCN(c3ccc(C4CCC(=O)NC4=O)cc3)CC2)CC1 (stereo partly drawn) [P-185]	1.5%	17 nM
C[C@H](C#N)Nc1cc(-n2ncc3cc(C#N)c(N)nc32)ncc1C(=O)N[C@H]1CC[C@H](CCN2CCN(c3ccc(C4CCC(=O)NC4=O)c(Cl)c3)[C@H](C)C2)CC1 (stereo partly drawn) [P-187]	1.4%	20 nM
CNc1nc2c(cnn2-c2cc(N[C@H](C)C#N)c(C(=O)N[C@H]3CC[C@H](CCN4CCN(c5ccc(C6CCC(=O)NC6=O)cc5)CC4)CC3)cn2)cc1C#N (stereo partly drawn) [P-188]	1.1%	6 nM
C[C@H](C#N)Nc1cc(-n2ncc3cc(C#N)cnc32)ncc1C(=O)N[C@H]1CC[C@H](CCN2C3COCC2CN(c2ccc(C4CCC(=O)NC4=O)cc2)C3)CC1 (stereo partly drawn) [P-189]	25.3%	54 nM
C[C@H](C#N)Nc1cc(-n2ncc3cc(C#N)cnc32)ncc1C(=O)N[C@H]1CC[C@H](CCN2CCN(c3ccc(C4CCC(=O)NC4=O)cc3)C3(COC3)C2)CC1 (stereo partly drawn) [P-190]	24.9%	158 nM
C[C@H](C#N)Nc1cc(-n2ncc3cc(C#N)cnc32)ncc1C(=O)N[C@H]1CC[C@H](CCN2CCN(c3ccc(C4CCC(=O)NC4=O)cc3)C3(CC3)C2)CC1 (stereo partly drawn) [P-191]	20.4%	1790 nM
CCc1nc2c(cnn2-c2cc(N[C@H](C)C#N)c(C(=O)N[C@H]3CC[C@H](CCN4CCN(c5ccc(C6CCC(=O)NC6=O)cc5)CC4)CC3)cn2)cc1C#N (stereo partly drawn) [P-192]	1.0%	58 nM
C[C@H](C#N)Nc1cc(-n2ncc3cc(C#N)cnc32)ncc1C(=O)N[C@H]1CC[C@H](CCN2CC3COCC(C2)N3c2ccc(C3CCC(=O)NC3=O)cc2)CC1 (stereo partly drawn) [P-194]	39.8%	4040 nM
C[C@H](C#N)Nc1cc(-n2ncc3cc(C#N)cnc32)ncc1-c1cn(C2CCC(CCN3CCN(c4ccc(C5CCC(=O)NC5=O)cc4)CC3)CC2)nn1 (stereo partly drawn) [P-195]	2.2%	
C[C@H](C#N)Nc1cc(-n2ncc3cc(C#N)cnc32)ncc1-c1cn([C@H]2CC[C@H](CCN3CCN(c4ccc(C5CCC(=O)NC5=O)cc4)CC3)CC2)nn1 (stereo partly drawn) [P-195]		6 nM
C[C@H](C#N)Nc1cc(-n2ncc3cc(C#N)cnc32)ncc1-c1cc(C2CCC(CCN3CCN(c4ccc(C5CCC(=O)NC5=O)cc4)CC3)CC2)on1 (stereo partly drawn) [P-196]	3.5%	
C[C@H](C#N)Nc1cc(-n2ncc3cc(C#N)cnc32)ncc1-c1cc([C@H]2CC[C@H](CCN3CCN(c4ccc(C5CCC(=O)NC5=O)cc4)CC3)CC2)on1 (stereo partly drawn) [P-196]		167 nM
CC(C#N)Nc1cc(-n2ncc3cc(C#N)cnc32)ncc1-n1cc(C2CCC(C(F)CN3CCN(c4ccc(C5CCC(=O)NC5=O)cc4)CC3)CC2)nn1 (stereo not drawn) [P-198]	1.2%	10 nM
